Reference: US20190117630A1, “METHODS AND DRUG COMPOSITIONS FOR TREATING LYME DISEASE” (priority 2016, published 2019)
Counter-ions that a name gives are not always drawn.

Columns and labels:
Borrelia [1] = assay: Determination of Minimum Inhibitory Concentration (MIC); assay type: cell-based, B. burgdorferi; conditions: Borreliella burgdorferi; 72 hours, lowest concentration with no motile spirochete by microscopy
Method: (§1) The Minimum Inhibitory Concentration (MIC) of the small molecules identified through screening was determined by culturing 10^6/ml Borrelia in BSK-II medium with different concentrations (0.3 μM to 160 μM) of drugs. For MIC, 1 ml cultures with respective drugs were grown in 48 well plates in triplicates, wrapped with paraffin film and placed for 72 hours at 33° C. in a humidified CO2 incubator (Forma Scientific, USA) having 5% CO2 and 95% air. Cell proliferation was assessed using bacterial counting chamber (Petroff-Hausser Counter, Horsham, Pa., USA) by phase contrast microscopy. In parallel cell proliferation was also assessed BacTiter-Glo™ Assay. The counting was performed in all the 25 squares of the central grid. The BacTiter-Glo™ Assay was performed by mixing 100 μl of culture in each well with 100 μl of BacTiter-Glo™ reagent (Promega, Madison, Wis., USA). Then, the assay was performed according to the manufacturer's instructions. Luminescence was measured on a Flex station3 micro-plate reader at luminescence 500 ms.
(§2) To confirm the efficacy of the screening MIC and MBC values were evaluated. The MIC is determined as the lowest concentration at which no motile spirochete is observed by microscopy. […] The MBC was determined by sub-culturing 20 μl of the Borrelia cultures grown at different drug concentrations in fresh BSK-II medium for 21 days. The MBC value was determined when no spirochete was observed microscopically in the culture.

Borrelia cultures = assay: Secondary screening, Borrelia cell viability by BacTiter-Glo Assay; assay type: cell-based, B. burgdorferi; conditions: for efficacy (Borrelia cell viability assay): at 0.31 μM, FIG. 1B
Method: FIG. 1 depicts a Borrelia cell viability assay using agents (A) tetraethylthiuram disulfide, doxorubicin hydrochloride, and epirubicin hydrochloride and (B) azlocillin sodium and cephalothin sodium. The results represent mean±SD.
as §1
The viability of Borellia cultures was evaluated with BacTiter-Glo™ Assay.

Borrelia [2] = assay: Determination of Minimum Bactericidal Concentration (MBC); assay type: cell-based, B. burgdorferi; conditions: Borreliella burgdorferi, 504 h; sub-culture in fresh BSK-II medium for 21 days, no spirochete observed
Method: For determining minimum bactericidal concentration (MBC), 20 μl of the 10^6/ml Borrelia cultures grown in BSK-II medium for 72 hours at different drug concentrations were added to the fresh BSK-II medium and sub-cultured for 3 weeks. After 3 weeks of incubation period, the samples were observed microscopically for motile spirochetes in the culture. The MIC and MBC determinations were done thrice independently.
as §2

Bb = conditions: C3H mouse model, urinary bladders, heart, ear skin
Method: After the synergy was determined the efficacy of the drugs were studied in vivo in the following way: C3H/HeN mice of 4-6 week old were infected intradermally in the abdominal area with 0.1 ml of BSK-II medium containing 10^5 Bb with a 25G tuberculin syringe. […] Cultures were monitored up to 6 weeks for motile spirochetes using darkfield microscopy.
To evaluate the efficacy of the drugs in vivo, they were tested in a C3H mouse model.

[3] = system: doxycycline-tolerant Borrelia persisters; assay: Eradication of doxycycline-tolerant Bb persisters; assay type: cell-based, B. burgdorferi; conditions: 5 days, after doxycycline 2.5 μM to 40 μM for 3 days, FIG. 3B
Method: So to identify the drugs that kill drug-tolerant Borrelia persisters, 10^6/ml Borrelia in BSK-II medium was treated with concentrations of doxycycline ranging from 2.5 μM to 40 μM for 3 days. The doxycycline-tolerant persisters were treated with 20 μg and 40 μg Azlocillin for 5 days. After 5 days of treatment, the cultures were pelleted, washed and plated on semisolid BSK-II agarose plates for minimum 21 days. The plates were incubated for regrowth and colonies are counted. The study was performed thrice independently.

Borrelia isolate CA8 Bss = assay: Time-kill studies; assay type: cell-based, B. burgdorferi sensu stricto; conditions: 1.25 μM, CA8 strain
Method: Time-kill studies were performed with Borrelia isolate CA8 Bss with azlocillin sodium and cefotaxime acid. To determine the rate of antimicrobial activity, 10^6/ml Borrelia cultures were grown in BSK-II medium with drugs at different concentrations. BSK-II medium with no drugs is used as a control. The antibacterial activity was determined by counting bacteria at 24 hours, 48 hours and 72 hours. The experiment was done once with triplicates.

CC(=O)NC[C@H]1CN(c2ccc(N3CCOCC3)c(F)c2)C(=O)O1 [Linezolide]
MIC (Borrelia [1]): ≤ 3 µM

CCN(CC)C(=S)SSC(=S)N(CC)CC [Tetraethylthiuram disulfide]
concentration showing complete Borrelia cell inhibition (Borrelia cultures; BacTiter-Glo Assay, FIG. 1A): 1.25 µM | MBC (Borrelia [2]): ≤ 10 µM | MIC (Borrelia [1]): ≤ 3 µM

CO/N=C(\C(=O)N[C@@H]1C(=O)N2C(C(=O)O)=C(COC(C)=O)CS[C@H]12)c1csc(N)n1 [Cefotaxime acid]
elimination of Borrelia infection in vivo (failure to culture live spirochetes from tissues after treatment) (Bb): very effective in eliminating Borrelia infection | MBC (Borrelia [2]): ≤ 10 µM | MIC (Borrelia [1]): ≤ 3 µM | elimination of doxycycline-tolerant Borrelia persisters ([3]; 40 μg): killed the Borrelia persisters completely | decrease of initial Borrelia inoculum, time-kill (Borrelia isolate CA8 Bss): 1 log10-unit

CC(=O)[C@]1(O)Cc2c(O)c3c(c(O)c2[C@@H](O[C@H]2C[C@H](N)[C@H](O)[C@H](C)O2)C1)C(=O)c1ccccc1C3=O [Idarubicin HCl]
MBC (Borrelia [2]): ≤ 10 µM

COc1cccc2c1C(=O)c1c(O)c3c(c(O)c1C2=O)C[C@@](O)(C(=O)CO)C[C@@H]3O[C@H]1C[C@H](N)[C@H](O)[C@H](C)O1 [Doxorubicin hydrochloride]
concentration uniformly effective against Bb (Borrelia cultures; BacTiter-Glo Assay, FIG. 1A): 0.625 µM | MBC (Borrelia [2]): < 1.5 µM | MIC (Borrelia [1]): < 1 µM

Cc1nnc(SCC2=C(C(=O)O)N3C(=O)[C@@H](NC(=O)Cn4cnnn4)[C@H]3SC2)s1 [Cefazolin sodium]
MIC (Borrelia [1]): ≤ 3 µM

CC1(C)S[C@@H]2[C@H](NC(=O)[C@H](NC(=O)N3CCNC3=O)c3ccccc3)C(=O)N2[C@H]1C(=O)O [Azlocillin sodium]
efficacy (Borrelia cell viability assay) (Borrelia cultures): ~99% | elimination of Borrelia infection in vivo (failure to culture live spirochetes from tissues after treatment) (Bb): very effective in eliminating Borrelia infection | MBC (Borrelia [2]): ≤ 10 µM | MIC (Borrelia [1]): ≤ 3 µM | elimination of doxycycline-tolerant Borrelia persisters ([3]; 20 μg): completely eliminated | elimination of doxycycline-tolerant Borrelia persisters ([3]; 40 μg): completely eliminated

CO[C@@H]1[C@@H](O[C@@H]2O[C@H](C)[C@@H](O[C@H]3C[C@@](C)(O)[C@@H](OC(=O)CC(C)C)[C@H](C)O3)[C@H](N(C)C)[C@H]2O)[C@@H](CC=O)C[C@@H](C)[C@@H](O)/C=C/C=C/C[C@@H](C)OC(=O)C[C@H]1O [leucomycin]
MBC (Borrelia [2]): ≤ 10 µM

COc1cccc2c1C(=O)c1c(O)c3c(c(O)c1C2=O)C[C@@](O)(C(=O)CO)C[C@@H]3O[C@H]1C[C@H](N)[C@@H](O)[C@H](C)O1 [Epirubicin hydrochloride]
concentration uniformly effective against Bb (Borrelia cultures; BacTiter-Glo Assay, FIG. 1A): 0.625 µM | MBC (Borrelia [2]): < 1.5 µM | MIC (Borrelia [1]): < 1 µM

CC(=O)OCC1=C(C(=O)O)N2C(=O)[C@@H](NC(=O)Cc3cccs3)[C@H]2SC1 [Cephalothin sodium]
efficacy (Borrelia cell viability assay) (Borrelia cultures): ~99% | MIC (Borrelia [1]): ≤ 3 µM
